Data as given in the supplement of paper PMC7661543.
± gives the standard deviation of the averaged measurements.

Tests used:
Assay in all cases: relative cell number vs DMSO control (72 h) (% of DMSO); higher = less growth inhibition (more cells)
Details in all cases: sgRNA knockout: sgNT
MDA-MB-231 = system: MDA-MB-231
How it was run: (§1)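 Doxycycline at 100 ng/mL was applied for 6 days to pooled Cas9-engineered breast cancer lines, each holding 12 sgRNA perturbations. The cells were then seeded at 5000 per 96-well and exposed in duplicate for 72 h to four 10-fold doses (10 nM–10 μM or 1 nM–1 μM). Cell numbers were read from sequenced sgRNA and cell-line barcodes using per-sample 293T spike-in standard curves. The reported relative cell number is the percent of the median of DMSO-treated samples.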

HCC-38 = system: HCC-38
How it was run: as §1

SKBR3 = system: SKBR3
How it was run: as §1

ZR-75-1 = system: ZR-75-1
How it was run: as §1

BT-20 = system: BT-20
How it was run: as §1

| SMILES | relative cell number (MDA-MB-231; 10 nM) | relative cell number (MDA-MB-231; 100 nM) | relative cell number (MDA-MB-231; 1000 nM) | relative cell number (MDA-MB-231; 10000 nM) | relative cell number (HCC-38; 10 nM) | relative cell number (HCC-38; 100 nM) | relative cell number (HCC-38; 1000 nM) | relative cell number (HCC-38; 10000 nM) | relative cell number (SKBR3; 10 nM) | relative cell number (SKBR3; 100 nM) | relative cell number (SKBR3; 1000 nM) | relative cell number (SKBR3; 10000 nM) | relative cell number (ZR-75-1; 10 nM) | relative cell number (ZR-75-1; 100 nM) | relative cell number (ZR-75-1; 1000 nM) | relative cell number (ZR-75-1; 10000 nM) | relative cell number (BT-20; 10 nM) | relative cell number (BT-20; 100 nM) | relative cell number (BT-20; 1000 nM) | relative cell number (BT-20; 10000 nM) | relative cell number (MDA-MB-231; 1 nM) | relative cell number (HCC-38; 1 nM) | relative cell number (SKBR3; 1 nM) | relative cell number (ZR-75-1; 1 nM) | relative cell number (BT-20; 1 nM) |
| --- | --- | --- | --- | --- | --- | --- | --- | --- | --- | --- | --- | --- | --- | --- | --- | --- | --- | --- | --- | --- | --- | --- | --- | --- | --- |
| O=P1(NCCCl)OCCCN1CCCl (stereo not given) [Ifosfamide] | 75.5 ± 8 | 95.4 ± 25 | 103 ± 13 | 95.5 ± 5.4 | 107 ± 4.6 | 96 ± 20 | 105 ± 14 | 100 ± 11 | 74.2 ± 5.4 | 74.6 ± 24 | 82.8 ± 25 | 71.9 ± 38 | 69.6 ± 31 | 107 ± 35 | 79.1 ± 40 | 85.6 ± 8.3 | 71.6 ± 2.8 | 89.6 ± 16 | 109.5 ± 0.23 | 84.7 ± 16 | – | – | – | – | – |
| O=C(c1ccc(/C=C/c2n[nH]c3ccccc23)cc1)N1CCNCC1 [KW2449] | 103 ± 14 | 116 ± 35 | 78.79 ± 0.17 | 35.4 ± 8.4 | 88 ± 8 | 87.64 ± 0.15 | 81 ± 5.1 | 42.2 ± 5.9 | 69 ± 16 | 72.7 ± 10 | 104 ± 5.3 | 73.1 ± 49 | 75.6 ± 8.1 | 104 ± 3.9 | 48.8 ± 12 | 56 ± 10 | 109 ± 15 | 89.6 ± 4.7 | 113 ± 20 | 79.4 ± 13 | – | – | – | – | – |
| CCNC(=O)c1noc(-c2cc(C(C)C)c(O)cc2O)c1-c1ccc(CN2CCOCC2)cc1 [NVPAUY922] | 71.4 ± 5.7 | 16 ± 4.2 | 9.36 ± 1.3 | – | 67.6 ± 2.1 | 31.7 ± 5.1 | 30 ± 6 | – | 78.6 ± 19 | 30 ± 8.8 | 18.5 ± 5.7 | – | 89.8 ± 44 | 27.1 ± 1.1 | 25.7 ± 6.9 | – | 81.1 ± 1.5 | 48 ± 3.7 | 37.9 ± 5.3 | – | 111 ± 40 | 112 ± 16 | 116 ± 31 | 107 ± 6.7 | 96.7 ± 24 |
| Cc1c(Cn2c(C)nc3c(C(=O)O)cc(N4CCOCC4)cc32)cccc1C(F)(F)F | 105 ± 4.5 | 123 ± 22 | 93.9 ± 27 | 112 ± 23 | 115 ± 17 | 85.5 ± 2.4 | 108 ± 19 | 102 ± 10 | 137 ± 8 | 123 ± 22 | 98.4 ± 25 | 99.1 ± 8.4 | 126 ± 2.5 | 98.6 ± 13 | 72.1 ± 7 | 108 ± 53 | 100 ± 7.3 | 117 ± 23 | 87 ± 10 | 82.1 ± 1.1 | – | – | – | – | – |
| Cc1ccc(NC(=O)c2ccc(CN3CCN(C)CC3)cc2)cc1Nc1nc(-c2cccnc2)cs1 [Masitinib] | 91 ± 41 | 74.9 ± 12 | 64.2 ± 30 | 50.7 ± 4.3 | 106 ± 6.1 | 78.71 ± 0.36 | 76.6 ± 17 | 97.6 ± 2.4 | 78.7 ± 58 | 99.4 ± 23 | 67.4 ± 6.4 | 66.6 ± 0.77 | 70.6 ± 28 | 76.2 ± 9.5 | 94.7 ± 34 | 34.2 ± 1.2 | 92.1 ± 2.6 | 80.9 ± 25 | 95.2 ± 38 | 70.8 ± 23 | – | – | – | – | – |
| CC(=O)c1c(C)c2cnc(Nc3ccc(N4CCNCC4)cn3)nc2n(C2CCCC2)c1=O [Palbociclib] | 97.3 ± 57 | 30.6 ± 16 | 22.5 ± 2.1 | 22.1 ± 6 | 74.3 ± 13 | 37.4 ± 10 | 44.4 ± 2 | 42.2 ± 0.9 | 90.3 ± 0.5 | 52.1 ± 5.9 | 51.3 ± 4.3 | 43.8 ± 16 | 66.5 ± 20 | 36.6 ± 2.5 | 30 ± 3.5 | 29.9 ± 3 | 87.4 ± 11 | 41.8 ± 13 | 45.8 ± 1.1 | 53.889 ± 0.041 | – | – | – | – | – |
| COc1cc([C@@H]2c3cc4c(cc3[C@@H](O[C@@H]3O[C@@H]5CO[C@@H](C)O[C@H]5[C@H](O)[C@H]3O)[C@H]3COC(=O)[C@H]23)OCO4)cc(OC)c1O [Etoposide] | 81.6 ± 3.5 | 71.7 ± 1.1 | 21.8 ± 1.8 | 11.9 ± 1.1 | 75.4 ± 33 | 84.8 ± 13 | 31.6 ± 5.3 | 20.5 ± 1.8 | 58 ± 10 | 50.1 ± 4.5 | 31.3 ± 9.5 | 12.6 ± 12 | 56 ± 2.7 | 54.5 ± 4.6 | 46.8 ± 4.2 | 31.5 ± 1.5 | 87 ± 6.6 | 83 ± 1.2 | 52.6 ± 0.56 | 36 ± 15 | – | – | – | – | – |
| COc1cc2c(cc1-c1c(C)noc1C)ncc1[nH]c(=O)n([C@H](C)c3ccccn3)c12 [IBET151] | 88.1 ± 9 | 72.1 ± 3.6 | 42.4 ± 2 | 19 ± 15 | 85.1 ± 6.5 | 82.8 ± 13 | 60.2 ± 2.5 | 53.6 ± 3.3 | 64.9 ± 9 | 88.5 ± 6.6 | 47.8 ± 1.4 | 31.9 ± 9.4 | 65.6 ± 36 | 104 ± 28 | 49 ± 4.5 | 37.5 ± 0.4 | 82.5 ± 2.4 | 90.5 ± 39 | 72.5 ± 0.91 | 49.4 ± 3.8 | – | – | – | – | – |
| O=C(Nc1ccc([N+](=O)[O-])cc1Cl)c1cc(Cl)ccc1O [Niclosamide] | 115 ± 21 | 119 ± 34 | 97.4 ± 20 | 37.7 ± 14 | 92.2 ± 13 | 92.62 ± 0.79 | 113 ± 7.2 | 46.5 ± 11 | 108 ± 7.6 | 83.6 ± 3.2 | 82.1 ± 19 | 59.8 ± 2.1 | 88.4 ± 14 | 104 ± 61 | 102 ± 80 | 50.2 ± 10 | 91.7 ± 20 | 109 ± 7 | 98.5 ± 3.8 | 55 ± 12 | – | – | – | – | – |
